Data on 14 compounds can be found in US8431166B2, “Composition comprising the extract of Anemarrhena asphodeloides Bunge or the compounds isolated from the same for preventing and treating lipid metabolism disorder” (EWHA University-Industry Collaboration Foundation, priority 2009, dated 2013).

Read-outs that look alike come from different tables or passages of the source. Bounds are passed on as bounds.

The subject of this assay is Pre-adipocytes and 3T3-L1 cell. Kind of assay: Inhibitory effect on adipocyte differentiation (Oil-red O staining). The format is cell-based. The following applies: 3T3-L1, Oil-red O staining; for IC50: day 7, IC50 determined using BioDataFit 1.02, read-out: Inhibitory Activities of Isolated Compound on Adipocyte Differentiation(IC50). The procedure: Oil-red O was dissolved in 100% isopropanol, and stirred for about 16 hrs to prepare a 0.3% Oil-red O staining solution. Distilled water was added to the solution at a ratio of 0.3% Oil-red O:distilled water=6:4 (v/v), and mixed with each other. The solution was filtered using 3M paper once, and filtered again using a 0.2 μm syringe filter.
Pre-adipocytes and 3T3-L1 cell (American Tissue Culture. Collection, ATCC) were maintained in DMEM (Dulbecco's Modified Eagle Medium, Gibco-BRL, Grand Island, N.Y., USA) supplemented with 10% bovine calf serum. 4×10^4 of cells were suspended in 0.5 ml and seeded in each well of 24-well plate. The cells were grown to confluence for 48 hrs in the same medium and the medium was replaced with DMEM containing insulin (5 μg/mL), 10 μM rosiglitazone, 1 μM dexamethasone, and 10% fetal bovine serum (FBS) to differentiate adipocytes. […] As a control group, the cells were treated with Resveratrol (Sigma-Aldrich, 3,4′,5-Trihydroxy-trans-stilbene, 5-[(1E)-2-(4-Hydroxyphenyl)ethenyl]-1,3-benzenediol), which is known to inhibit the adipocyte differentiation and prevent diabetes, dissolved in DMSO at the same concentration. The cells were then replaced with 10% FBS/DMEM supplemented with 5 μg/mL insulin after 48 hrs, and also re-treated with each compound. After 48 hrs, the medium was replaced with fresh 10% FBS/DMEM. Day 7 after induction of adipocyte differentiation, the differentiated adipocytes were examined by Oil-red O staining. After removing the culture medium, the cells were gently washed with PBS once, and fixed in 10% formalin at room temperature for 1 hr. […] To wash off the staining solution, the cells were washed with distilled water, and dried (uncapped). After image scanning, the stained cells were treated with 100% isopropanol for 10 min to wash out the staining solution. The absorbance at 500 nm was measured to compare the Oil-red O staining between the compound-treated groups and the control group.

Turning to `COc1ccc(CCCc2ccc(O)cc2)c(O)c1` [Broussonin A], the “inhibitory effects on adipocyte differentiation (in words)” value is “showed inhibitory effects on adipocyte differentiation”.

What is called IC50 is the point on the concentration scale where inhibition reaches its midpoint. Consider `Cc1c(O)cc2c(c1O)C(=O)/C(=C/c1ccc(O)cc1)CO2` [Compound 1, (E)-5,7-Dihydroxy-3-(4′-hydroxybenzylidene)-6-methylchroman-4-one], for which the IC50 (Mus musculus, 168 h) turned out to be 336 µM.

With `O=C(C#Cc1ccc(O)cc1)c1ccc(O)cc1` [Compound 3, 1,3-bis(4-hydroxyphenyl)prop-2-yn-1-one], the “inhibitory effects on adipocyte differentiation (in words)” value was “excellent inhibitory effects on adipocyte differentiation even at lower concentration than the control group Resveratrol”. Also, for the setting “Mus musculus, 168 h”, the IC50 stood at 5.3 µM.

Take `C=C[C@H](/C=C\c1ccc(O)cc1)c1ccc(O)cc1` [Compound 5, (−)-Nyasol]: the IC50 (Mus musculus, 168 h) was determined as 108 µM.

Regarding `C=CC(CC(=O)c1ccc(O)cc1)c1ccc(O)cc1` (stereo not drawn) [Compound 7, 1,3-bis-di-p-hydroxyphenyl-4-penten-1-one], the IC50 was 326 µM.

For the compound `O=C(/C=C/c1ccc(O)cc1)c1ccc(O)cc1O` [Compound 8, 2′,4′,4-Trihydroxychalcone], the “inhibitory effects on adipocyte differentiation (in words)” value is listed as “showed inhibitory effects on adipocyte differentiation”. For the same compound, the IC50 (Mus musculus, 168 h) stood at 96.4 µM.

Regarding `Oc1ccc(CC2COc3cc(O)ccc3C2)cc1` (stereo not drawn) [Compound 9, 7,4′-Dihydroxyhomoisoflavane], the IC50 is more than 500 µM.

Consider `COc1cc(O)ccc1C(=O)/C=C/c1ccc(O)cc1` [Compound 10, 2′-O-Methylisoliquiritigenin], for which the “inhibitory effects on adipocyte differentiation (in words)” value was “showed inhibitory effects on adipocyte differentiation” and the IC50 turned out to be 41.8 µM.

Regarding `COc1cc(O)cc2c1C(=O)CC(c1ccc(O)cc1)O2` (stereo not drawn) [Compound 12, 4′,7-Dihydroxy-5-methoxyflavanone], under “Mus musculus, 168 h”, the IC50 is 260 µM.

In the case of `COc1cc(O)cc(O)c1C(=O)CCc1ccc(O)cc1` [Compound 13, 2′-O-methylphloretin], the IC50 was more than 500 µM.

With `O=C(/C=C/c1ccc(O)cc1)c1ccc(O)cc1` [Compound 14, 4,4′-Dihydroxychalcon], where the note is “Mus musculus, 168 h”, the IC50 was more than 500 µM.

With `Oc1ccc(/C=C/c2cc(O)cc(O)c2)cc1` [Resveratrol, 3,4′,5-Trihydroxy-trans-stilbene, reference compound], the IC50 (Mus musculus, 168 h) stood at 31.4 µM.

As to (−)-4′-O-Methylnyasol [Compound 4], the “inhibitory effects on adipocyte differentiation (in words)” value was “showed inhibitory effects on adipocyte differentiation” and the IC50 was 45.9 µM.

For the compound Broussonin A [Compound 6], the IC50 is 74.5 µM.
